Test results from patent publication US20100093642A1, “NOVEL POLYPEPTIDES” (priority 2006, published 2010).
Converted amounts (≈) assume the structure as drawn. Residues, ends and D or L forms follow the SMILES beside them. No end group written: not given here.

How the values were obtained:
[1] = tested on: Pseudomonas aeruginosa ATCC 27853; assay type: cell-based; conditions: non-clinical isolate; 37° C.; 3×10^6 cells per ml
Procedure: (§1) The antibacterial activities of the different peptides were determined by continuous monitoring of bacterial growth with a Bioscreen C microbiology reader (Labsystems Oy, Helsinki, Finland). The test was performed in 100-well flat-bottomed honeycomb plates, in which 50 μl of test fractions were incubated with 50 μl of a suspension of an actively growing culture of bacteria diluted in Mueller Hinton medium to a starting concentration of 3×10^4 cells per ml. The Gram-negative bacteria, Listonella (Vibrio) anguillarum, serotype O2 (FT 1801, a fish pathogenic strain), Pseudomonas aeruginosa and E. coli (ATCC 25922), and the Gram-positive bacteria, C. glutamicum (ATCC 13032) and S. aureus (ATCC 9144), were chosen as test bacteria. The growth chamber was maintained at either 20 or 37° C. during the incubation period. The absorbance was measured at 2 h intervals for 48 h by a turbidometric method with vertical light photometry and a wide band filter (420-580 nm), which is more insensitive to color change in the sample compared to single wavelength detection. Antibacterial activity was determined when the optical density (OD) of the growth control (bacteria plus water) reached an absorbance of 0.3-0.4. Fractions were regarded as active when the OD was less than 50% of the growth control. Polymyxin B (Sigma, St. Louis, Mo., USA), Lactoferricin B, Cecropin P1 and Hyalophora cecropia Cecropin B were used as reference.
(§2) The antimicrobial molecules were also tested against drug resistant clinical isolates, such as the commonly encountered multi-resistant human pathogen S. aureus (MRSA) K15-64 and the glycopeptide (vancomycin)-resistant Enterococccus faecium (GREF) K9-28. The non-clinical isolates Escherichia coli (ATCC 25922), Pseudomonas aeruginosa (ATCC 27853), Corynebacterium glutamicum (ATCC 13032), and Staphylococcus aureus (ATCC 9144) were also tested for comparison. Serial dilutions of synthetic peptides were made in double distilled water and tested according to the method described above. However, in these experiments the starting concentration of bacteria were 3×10^6 cells per ml and the temperature in the growth chamber was 37° C. Polymyxin B was used as positive control for the Gram-negative bacteria.

[2] = tested on: Escherichia coli, ATCC 25922; assay type: cell-based; conditions: non-clinical isolate; 37° C.; 3×10^6 cells per ml
Procedure: as §1, §2

in vitro = assay type: cell-based, human; conditions: human
Procedure: The toxicity of test peptides on THP-1 cells was measured using the MIT method (Mosmann, 1983), with minor modifications. To induce monocyte-macrophage differentiation, THP-1 cells were cultured in 96-well culture plates (10^6 cells/well) in a volume of 100 μl RPMI 1640 medium, containing 50 ng/ml PMA (which is known to induce the maturation of monocytes) and incubated in a humidified atmosphere of 5% CO2 at 37° C. for 48 hours. The medium was then removed and the cells were washed with PBS, added 100 μl fresh medium (without PMA) and incubated for another 24 hours. Medium was removed and the adherent macrophages were treated with 100 μl of peptide solution (concentrations ranging from 0 to 800 μg/ml), diluted in RPMI-1640 assay medium without FBS. After incubation at 37° C. for 1 hour, the cells were added LPS (0.1 μg/ml) and further incubated for 4 hours. Cells treated with Triton X-100 (1%) were used as positive control (100% killing) whereas cells plus medium only were used as negative control. Following the incubation period, 10 μl MTT (5 mg/ml) dissolved in phosphate-buffered saline (PBS) was added to each well, and the plate was further incubated for 2 hours. A volume of 70 μl of the supernatant was then removed and 100 μl acid alcohol (0.04 M HCl in isopropanol) added to each well to dissolve the dark blue crystals. The plate was placed on a shaker for 1 hour at room temperature and read spectrophotometrically at 595 nm in a microtiter plate reader (DTX880 Multimode Detector, Beckman Coulter). Cell survival (%) was then determined from the ΔA595 nm relative to negative control (100% living cells) and expressed as 50% inhibitory concentration (IC50). The IC50 values were estimated from the dose-response curves, which were obtained by averaging at least 3 parallel experiments.

Fusarium sp. = assay: Antifungal MIC; assay type: cell-based; conditions: filamentous fungi; more than 50% inhibition of visible growth, 48 h
Procedure: (§3) The various derivates of P17 (brominated and non-brominated) were tested for their ability to inhibit fungal growth of the yeast strains Saccaharomyces cerevisiae sp, Candida albicans (ATCC 10231) and Rodotorula sp., and the filamentous strains Botrytis cinerea 101, Penicillium rogveforti, and Fusarium sp. All strains, except C. albicans, were a gift from Prof. A. Tronsmo (The Norwegian University of Life Sciences, Ås, Norway). The fungi were cultivated on potato dextrose agar, supplemented with 2% glucose, at room temperature. Before antifungal testing, the fungi were dissolved in potato dextrose broth (Difco) at half-strength. Cell concentration was determined and adjusted after counting in a Bürker chamber. The filamentous fungi were filtered through a piece of cotton before counting. An aliquot of 50 μl of fungal spores (final concentration 2×10^5 spores per ml) were inoculated in microtiter plates (96 wells) along with 50 μl peptide solution. Peptides, dissolved in distilled water, were tested at final concentrations (two-fold dilutions) ranging from 50 μM to 0.1 μM. Cultures were grown in the dark (without shaking) and with a moist chamber at 25° C. (37° C. for C. albicans). Growth inhibition was determined microscopically after 48 h of incubation. MIC was determined as the lowest concentration of peptide resulting in 50% inhibition of visible growth.

Penicillum rogveforti = assay: Antifungal MIC; assay type: cell-based; conditions: filamentous fungi; more than 50% inhibition of visible growth, 48 h
Procedure: as §3

Row | Compound | Minimal inhibitory concentration, Pseudomonas aeruginosa ATCC 27853 [1] | Minimal inhibitory concentration, Escherichia coli, ATCC 25922 [2] | CC50 at 5 h (in vitro) | Minimal inhibitory concentration (MIC), Fusarium sp. (Fusarium sp.) | Minimal inhibitory concentration (MIC), Penicillum rogveforti (Penicillum rogveforti)
1 | CC[C@H](C)[C@H](NC(=O)CNC(=O)[C@H](CO)NC(=O)[C@H](CCCCN)NC(=O)[C@@H](NC(=O)[C@H](C)NC(=O)[C@H](Cc1c[nH]cn1)NC(=O)[C@H](CO)NC(=O)[C@@H](NC(=O)[C@H](CCCCN)NC(=O)[C@H](Cc1c[nH]cn1)NC(=O)[C@H](Cc1ccccc1)NC(=O)[C@@H](NC(=O)[C@H](CCCCN)NC(=O)[C@H](CCCCN)NC(=O)[C@H](Cc1ccccc1)NC(=O)C(Cc1c[nH]c2ccc(Br)cc12)NC(=O)CN)[C@@H](C)O)C(C)C)C(C)C)C(=O)N[C@@H](Cc1c[nH]cn1)C(=O)N[C@@H](C)C(=O)NCC(=O)N[C@@H](CCC(N)=O)C(=O)N[C@@H](CCCNC(=N)N)C(=O)NCC(=O)N[C@@H](CS)C(=O)N[C@@H](CO)C(=O)N[C@@H](C)C(=O)N[C@@H](CC(C)C)C(=O)NCC(=O)N[C@@H](Cc1ccccc1)C(=O)O (stereo partly shown) [P17 HC-Br] (HELM PEPTIDE1{G.[O=C(C(Cc1c[nH]c2ccc(Br)cc12)N[*:1])[*:2]].F.K.K.T.F.H.K.V.S.H.A.V.K.S.G.I.H.A.G.Q.R.G.C.S.A.L.G.F}$$$$V2.0) | 6.25 µM (≈ 20.8 µg/mL) | 6.25 µM (≈ 20.8 µg/mL) | 51.1 µM | 1.56 µM (≈ 5.18 µg/mL) | 6.25 µM (≈ 20.8 µg/mL)
2 | GWFKKTFHKVSHAVKSGIHAGQRGCSALGF [P17 HC] | 6.25 µM | 6.25 µM | 38 µM | 1.56 µM | 6.25 µM
